Tested on: subjects with moderate-to-severe plaque psoriasis
Test: PASI response, Example 2 long-term extension to Week 52
Format: in vivo, human
Settings: for Change from Baseline in PASI Total Score, LSMean: MMRM model
Text: Described below is a multicenter, long-term extension (LTE), double-blind, dose-ranging, parallel group interventional study in participants from Example 1 to evaluate the long-term efficacy and safety of the hydrochloride salt of the compound of Formula (I) for the treatment of moderate-to-severe plaque psoriasis. Patients from Example 1 continued to receive the same dose of the compound of Formula (I) for an additional 36-week treatment period with a 4-week safety follow up period after the last administration of the compound of Formula (I). Patients randomized to placebo in Example 1 received the compound of Formula (I) at a dose of 100 mg QD starting at Week 16 of Example 1 (FIG. 21).
The primary efficacy endpoint is the proportion of participants achieving a PASI 75 response at Week 52, defined as at least a […] reduction from baseline PASI of Example 1. For primary analysis, composite strategy (non-responder imputation) was applied to address intercurrent event #1 (Discontinuation of study intervention due to lack of efficacy or due to an AE of worsening of psoriasis) and […] (initiation of a protocol-prohibited medication or therapy that could improve psoriasis); treatment policy strategy (observed data) was applied to intercurrent event #3 (Discontinuation of study intervention due to other reasons). Participants with missing data after application of ICEs are considered as non-responders.
Since there was no control arm (after week 16), in this primary analysis, only the proportion of participants who achieved a PASI75 response and its […] confidence interval at Week 52 were summarized for each intervention group.

[1] = Placebo → 100 mg QD, crossed over at or after Week 16, Week 20
[2] = Placebo → 100 mg QD, crossed over at or after Week 16, Week 24
[3] = Placebo → 100 mg QD, crossed over at or after Week 16, Week 28
[4] = Placebo → 100 mg QD, crossed over at or after Week 16, Week 32
[5] = Placebo → 100 mg QD, crossed over at or after Week 16, Week 40
[6] = Placebo → 100 mg QD, crossed over at or after Week 16, Week 52
[7] = Placebo → 100 mg QD, crossed over at or after Week 16, Week 52, non-responder imputation

CC(=O)NCCCC[C@@H]1NC(=O)[C@H](Cc2c[nH]c3c(C)cccc23)NC(=O)[C@H]([C@@H](C)O)NC(=O)[C@H](CC(N)=O)NC(=O)[C@@H](NC(C)=O)C(C)(C)SSC(C)(C)[C@@H](C(=O)N[C@@H](Cc2ccc(OCCN)cc2)C(=O)N[C@@H](Cc2ccc3ccccc3c2)C(=O)NC2(C(=O)N[C@@H](CCC(=O)O)C(=O)N[C@@H](CC(N)=O)C(=O)N[C@@H](Cc3cccnc3)C(=O)N(C)CC(N)=O)CCOCC2)NC1=O [IL-23 receptor antagonist peptide, Ac-[Pen]*-N-T-[W(7-Me)]-[Lys(Ac)]-[Pen]*-Phe[4-(2-aminoethoxy)]-[2-Nal]-[THP]-E-N-[3-Pal]-Sarc-NH2 (*[Pen]-[Pen]* formdisulfidebond)]
Subjects achieving PASI 75 (100 mg QD, Week 52): 28 (65.1%)
Change from Baseline in PASI Total Score, LSMean (100 mg QD, Week 52): −15.5
Subjects achieving ≥75% Improvement at Week 52 (PASI 75 Response) (100 mg QD, Week 52, non-responder imputation): 28 (65.1%)
Change from Baseline in PASI Total Score, Mean [1]: −10.44
Change from Baseline in PASI Total Score, Median [1]: −10.35
Change from Baseline in PASI Total Score, LSMean [1]: −10.3
Change from Baseline in PASI Total Score, Mean [2]: −13.26
Change from Baseline in PASI Total Score, Median [2]: −14.10
Change from Baseline in PASI Total Score, LSMean [2]: −13.2
Change from Baseline in PASI Total Score, Mean [3]: −13.77
Change from Baseline in PASI Total Score, Median [3]: −14.10
Change from Baseline in PASI Total Score, LSMean [3]: −13.7
Change from Baseline in PASI Total Score, Mean [4]: −14.14
Change from Baseline in PASI Total Score, Median [4]: −14.75
Change from Baseline in PASI Total Score, LSMean [4]: −13.7
Change from Baseline in PASI Total Score, Mean [5]: −13.73
Change from Baseline in PASI Total Score, Median [5]: −14.85
Change from Baseline in PASI Total Score, LSMean [5]: −13.6
Change from Baseline in PASI Total Score, Mean [6]: −14.15
Change from Baseline in PASI Total Score, Median [6]: −15.30
Change from Baseline in PASI Total Score, LSMean [6]: −14.0
Subjects achieving 100% Improvement at Week 52 (PASI) [7]: 12 (34.3%)
Subjects achieving ≥75% Improvement at Week 52 (PASI 75 Response) [7]: 23 (65.7%)
Subjects achieving ≥90% Improvement at Week 52 (PASI) [7]: 20 (57.1%)
PASI ≥75% Improvement, subjects (%) (Week 1, 50 mg QD, N=43): (4.7%)
PASI ≥75% Improvement, subjects (%) (Week 1, 100 mg BID, N=42): (2.4%)
PASI ≥90% Improvement, subjects (%) (Week 1, 100 mg BID, N=42): (2.4%)
PASI ≥75% Improvement, subjects (%) (Week 1, 100 mg QD, N=43): (2.3%)
PASI ≥75% Improvement, subjects (%) (Week 2, 50 mg QD, N=43): (4.7%)
PASI ≥75% Improvement, subjects (%) (Week 2, 100 mg BID, N=42): (4.8%)
PASI ≥90% Improvement, subjects (%) (Week 2, 100 mg BID, N=42): (2.4%)
PASI ≥75% Improvement, subjects (%) (Week 2, 100 mg QD, N=43): (2.3%)
PASI ≥75% Improvement, subjects (%) (Week 4, 25 mg BID, N=41): (4.9%)
PASI ≥75% Improvement, subjects (%) (Week 4, 25 mg QD, N=43): (9.3%)
PASI ≥90% Improvement, subjects (%) (Week 4, 25 mg QD, N=43): (2.3%)
PASI ≥75% Improvement, subjects (%) (Week 4, 50 mg QD, N=43): (16.3%)
PASI ≥75% Improvement, subjects (%) (Week 4, 100 mg BID, N=42): (23.8%)
PASI ≥90% Improvement, subjects (%) (Week 4, 100 mg BID, N=42): (9.5%)
PASI ≥75% Improvement, subjects (%) (Week 4, 100 mg QD, N=43): (16.3%)
PASI ≥90% Improvement, subjects (%) (Week 4, 100 mg QD, N=43): (4.7%)
PASI 100% Improvement, subjects (%) (Week 8, 25 mg BID, N=41): (2.4%)
PASI ≥75% Improvement, subjects (%) (Week 8, 25 mg BID, N=41): (19.5%)
PASI ≥90% Improvement, subjects (%) (Week 8, 25 mg BID, N=41): (7.3%)
PASI 100% Improvement, subjects (%) (Week 8, 25 mg QD, N=43): (2.3%)
PASI ≥75% Improvement, subjects (%) (Week 8, 25 mg QD, N=43): (23.3%)
PASI ≥90% Improvement, subjects (%) (Week 8, 25 mg QD, N=43): (14.0%)
PASI 100% Improvement, subjects (%) (Week 8, 50 mg QD, N=43): (2.3%)
PASI ≥75% Improvement, subjects (%) (Week 8, 50 mg QD, N=43): (39.5%)
PASI ≥90% Improvement, subjects (%) (Week 8, 50 mg QD, N=43): (18.6%)
PASI 100% Improvement, subjects (%) (Week 8, 100 mg BID, N=42): (11.9%)
PASI ≥75% Improvement, subjects (%) (Week 8, 100 mg BID, N=42): (47.6%)
PASI ≥90% Improvement, subjects (%) (Week 8, 100 mg BID, N=42): (28.6%)
PASI 100% Improvement, subjects (%) (Week 8, 100 mg QD, N=43): (4.7%)
PASI ≥75% Improvement, subjects (%) (Week 8, 100 mg QD, N=43): (44.2%)
PASI ≥90% Improvement, subjects (%) (Week 8, 100 mg QD, N=43): (20.9%)
PASI 100% Improvement, subjects (%) (Week 12, 25 mg BID, N=41): (4.9%)
PASI ≥75% Improvement, subjects (%) (Week 12, 25 mg BID, N=41): (51.2%)
PASI ≥90% Improvement, subjects (%) (Week 12, 25 mg BID, N=41): (19.5%)
PASI 100% Improvement, subjects (%) (Week 12, 25 mg QD, N=43): (4.7%)
PASI ≥75% Improvement, subjects (%) (Week 12, 25 mg QD, N=43): (34.9%)
PASI ≥90% Improvement, subjects (%) (Week 12, 25 mg QD, N=43): (18.6%)
PASI 100% Improvement, subjects (%) (Week 12, 50 mg QD, N=43): (4.7%)
PASI ≥75% Improvement, subjects (%) (Week 12, 50 mg QD, N=43): (51.2%)
PASI ≥90% Improvement, subjects (%) (Week 12, 50 mg QD, N=43): (34.9%)
PASI 100% Improvement, subjects (%) (Week 12, 100 mg BID, N=42): (33.3%)
PASI ≥75% Improvement, subjects (%) (Week 12, 100 mg BID, N=42): (73.8%)
PASI ≥90% Improvement, subjects (%) (Week 12, 100 mg BID, N=42): (52.4%)
PASI 100% Improvement, subjects (%) (Week 12, 100 mg QD, N=43): (14.0%)
PASI ≥75% Improvement, subjects (%) (Week 12, 100 mg QD, N=43): (62.8%)
PASI ≥90% Improvement, subjects (%) (Week 12, 100 mg QD, N=43): (39.5%)
PASI 100% Improvement, subjects (%) (Week 16, 25 mg BID, N=41): (9.8%)
PASI ≥75% Improvement, subjects (%) (Week 16, 25 mg BID, N=41): (51.2%)
PASI ≥90% Improvement, subjects (%) (Week 16, 25 mg BID, N=41): (26.8%)
PASI 100% Improvement, subjects (%) (Week 16, 25 mg QD, N=43): (11.6%)
PASI ≥75% Improvement, subjects (%) (Week 16, 25 mg QD, N=43): (37.2%)
PASI ≥90% Improvement, subjects (%) (Week 16, 25 mg QD, N=43): (25.6%)
PASI 100% Improvement, subjects (%) (Week 16, 50 mg QD, N=43): (25.6%)
PASI ≥75% Improvement, subjects (%) (Week 16, 50 mg QD, N=43): (58.1%)
PASI ≥90% Improvement, subjects (%) (Week 16, 50 mg QD, N=43): (51.2%)
PASI 100% Improvement, subjects (%) (Week 16, 100 mg BID, N=42): (40.5%)
PASI ≥75% Improvement, subjects (%) (Week 16, 100 mg BID, N=42): (78.6%)
PASI ≥90% Improvement, subjects (%) (Week 16, 100 mg BID, N=42): (59.5%)
PASI 100% Improvement, subjects (%) (Week 16, 100 mg QD, N=43): (23.3%)
PASI ≥75% Improvement, subjects (%) (Week 16, 100 mg QD, N=43): (65.1%)
PASI ≥90% Improvement, subjects (%) (Week 16, 100 mg QD, N=43): (46.5%)
PASI 100% Improvement, subjects (%) (Week 20, 25 mg BID, N=41): (19.5%)
PASI ≥75% Improvement, subjects (%) (Week 20, 25 mg BID, N=41): (56.1%)
PASI ≥90% Improvement, subjects (%) (Week 20, 25 mg BID, N=41): (34.1%)
PASI 100% Improvement, subjects (%) (Week 20, 25 mg QD, N=43): (14.0%)
PASI ≥75% Improvement, subjects (%) (Week 20, 25 mg QD, N=43): (48.8%)
PASI ≥90% Improvement, subjects (%) (Week 20, 25 mg QD, N=43): (30.2%)
PASI 100% Improvement, subjects (%) (Week 20, 50 mg QD, N=43): (18.6%)
PASI ≥75% Improvement, subjects (%) (Week 20, 50 mg QD, N=43): (62.8%)
PASI ≥90% Improvement, subjects (%) (Week 20, 50 mg QD, N=43): (48.8%)
PASI 100% Improvement, subjects (%) (Week 20, 100 mg BID, N=42): (40.5%)
PASI ≥75% Improvement, subjects (%) (Week 20, 100 mg BID, N=42): (81.0%)

Source: patent US20260232767A1, “INTERLEUKIN-23 RECEPTOR ANTAGONIST PEPTIDES FOR USE IN THE TREATMENT OF PSORIASIS” (Janssen Pharmaceutica NV, priority 2023, published 2026)
